{"source": "patent US20050148786A1", "about": "“Diimmonium compound and use thereof” (Nippon Kayaku Kabushiki Kaisha, priority 2003, published 2005)", "key": {"[1]": {"assay": "Stability test of light fastness of diimmonium compound thin film", "format": "physicochemical", "description": "0.1 part of the Compound No. 3 was added to 10 part of tetrafluoropropanol to produce a coating solution. The obtained coating solution was applied to a polycarbonate substrate by spin coating to form a thin film of the diimmonium compound. The […] source output: 0.36 W/m^2; bath temperature: 24° C.; black panel temperature: 40° C.; humidity: 30% RH: by a Weatherometer (Ci4000, manufactured by Atlas Co.). After that, the remaining ratio of the diimmonium compound was measured by a spectrophotometer.\nFor comparison, a dye film was formed and evaluated in the same manner, except that the compound described in Patent Document No. 3; hexafluoroantimonate of tetrakis[p-di(n-butyl)aminophenyl]phenylenediimmonium (Comparative Example 8: Compound No. 153); was used in place of the Compound No. 3."}, "[2]": {"assay": "Comparative test of solubility measurement", "details": "room temperature", "quoted_text": "The solubility was measured for the compounds obtained in the above-mentioned Examples at a room temperature in methyl ethyl ketone (MEK) and toluene."}, "[3]": {"assay": "Stability test of light fastness of cyanine dye film", "format": "physicochemical", "description": "0.3 part of the cyanine dye (OM-57) was dissolved in 15 part of tetrafluoropropanol and 0.04 part of the Compound No. 3 was added to the obtained solution to produce a coating solution. The obtained coating solution was applied to a polycarbonate substrate by spin coating to form a dye film. The […] the conditions: light source output: 0.36 W/m^2; bath temperature: 24° C.; black panel temperature: 40° C.; humidity: 30% RH: by a Weatherometer (Ci4000, manufactured by Atlas Co.). After that, the remaining ratio of the cyanine dye was measured by a spectrophotometer.\nFor comparison, a dye film was formed and evaluated in the same manner, except that the compound described in Patent Document No. 3; hexafluoroantimonate of tetrakis[p-di(n-butyl)aminophenyl]phenylenediimmonium (Comparative Example 7: Compound No. 153); was used in place of the Compound No. 1."}, "[4]": {"assay": "thermal decomposition point (weight decrease starting point) by TG-DTA", "format": "physicochemical", "details": "measured by TG-DTA", "description": "the melting point: around 170° C.; and the thermal decomposition point (the weight decrease starting point): around 280° C. (measured by TG-DTA)"}, "[5]": {"assay": "maximum absorption wavelength (λmax) in dichloromethane", "format": "physicochemical", "description": "λmax: 1,102 nm (in dichloromethane);"}, "[6]": {"assay": "Stability test of moisture-and-heat resistance of near-IR absorption filter", "format": "physicochemical", "description": "1.2 part of each compound obtained in each Example was dissolved in 18.8 part of MEK. 80 part of a resin solution obtained by dissolving 25 part of an acrylic resin (Dianal BR-80, manufactured by Mitsubishi Rayon Co., Ltd.) in 75 part of MEK was mixed with the obtained solution to obtain a solution for coating. The solution was applied to form a film with a thickness of 2 to 4 μm on a polyester film and dried at 80° C. to obtain a near-IR absorption filter of the invention.\nThe obtained near-IR absorption filter was subjected to a stability test of moisture-and-heat resistance for 14 days in a constant temperature and constant humidity apparatus under 60° C. and 95% RH conditions. The filter was subjected to color measurement by a spectrophotometer before and after the test to calculate L*, a*, and b* values. If the + value of b* value is high, it means that the hue is yellowish and if b* value is close to 0, it means that the yellowish degree is low and filter is desirable and therefore, the hue evaluation and stability evaluation were done based on the b* value and its change."}, "[7]": {"assay": "Comparative test of molar absorption coefficient measurement", "format": "physicochemical", "details": "in dichloromethane; in M-1·cm-1", "description": "The compounds obtained in the above-mentioned Examples were subjected to the measurement of molar absorption coefficient (ε) in dichloromethane."}, "[8]": {"details": "Weatherometer 0.36 W/m^2, 24° C., 30% RH, 100-hour"}, "[9]": {"details": "Weatherometer 0.36 W/m^2, 24° C., 30% RH, 150-hour"}}}
{"smiles": "N#CCCCN(CCCC#N)c1ccc([N+](=C2C=CC(=[N+](c3ccc(N(CCCC#N)CCCC#N)cc3)c3ccc(N(CCCC#N)CCCC#N)cc3)C=C2)c2ccc(N(CCCC#N)CCCC#N)cc2)cc1.O=S(=O)([N-]S(=O)(=O)C(F)(F)F)C(F)(F)F.O=S(=O)([N-]S(=O)(=O)C(F)(F)F)C(F)(F)F", "note": "[Compound No. 3]", "values": [{"measurement": "remaining ratio of diimmonium compound (%), 100-hour after", "setting": "[1]; [8]", "value": 88, "unit": "%"}, {"measurement": "remaining ratio of diimmonium compound (%), 150-hour after", "setting": "[1]; [9]", "value": 86, "unit": "%"}, {"measurement": "remaining ratio of diimmonium compound (%), initial period", "setting": "[1]; thin film on polycarbonate, before irradiation", "value": 100, "unit": "%"}, {"measurement": "solubility in MEK", "setting": "[2]; methyl ethyl ketone", "value": 2, "unit": "%"}, {"measurement": "solubility in toluene", "setting": "[2]; toluene", "value": "insoluble"}, {"measurement": "remaining ratio of cyanine dye (%), initial period", "setting": "[3]; OM-57 dye film with compound added, before irradiation", "value": 100, "unit": "%"}, {"measurement": "remaining ratio of cyanine dye (%), 100-hour after", "setting": "[3]; [8]", "value": 47, "unit": "%"}, {"measurement": "remaining ratio of cyanine dye (%), 150-hour after", "setting": "[3]; [9]", "value": 27, "unit": "%"}, {"measurement": "thermal decomposition point (the weight decrease starting point)", "setting": "[4]", "value": "around 282 °C"}, {"measurement": "λmax", "setting": "[5]", "value": "1,064 nm"}, {"measurement": "b* value, difference", "setting": "[6]; 14-day after minus initial, 60° C. and 95% RH", "value": 2.5}, {"measurement": "b* value, 14-day after", "setting": "[6]; acrylic resin filter, 14 days at 60° C. and 95% RH", "value": 6.1}, {"measurement": "b* value, initial period", "setting": "[6]; acrylic resin filter, before test", "value": 3.6}, {"measurement": "molar absorption coefficient (ε)", "setting": "[7]", "value": "109,000"}]}
